Measured values published in patent US4719200A, “Amino acid derivatives and antihypertensive drugs containing the same” (Ajinomoto Co., Inc., priority 1984, dated 1988).

Test system: spontaneously hypertensive rates (SHR rats)
Assay: Measurement of change in blood pressure (systolic, indirect, conscious rats) after one oral dose
Format: in vivo, rat
Conditions: for Systolic Blood Pressure, Lowest Value: after administration; for Δ Blood Pressure (systolic): lowest value minus value before administration
Experimental: The antihypertensive activities of the amino acid derivatives as prepared above were determined.
As subject animals, there were used 5 spontaneously hypertensive rates (SHR rats) which had been sufficiently trained and confirmed to be hypertensive (mode, the body weight of 400 g) per a sample.
As an instrument for measuring the blood pressure there was used Programmed Electro-Sphygmomanometer PE-300 (Narco Co., U.S.A.), and the blood pressure was indirectly measured on conscious rats.
An aqueous solution of a sample (0.05 m mole/kg) was once force-fed into the stomach by means of a […] probe. As a control, the water as deionized was fed to the same animals as above.

[1] = second table (Examples 25-43), before administration
[2] = SHR rats, 5 per sample, before single force-feeding into the stomach of 0.05 m mole/kg aqueous solution
[3] = SHR rats, single force-feeding into the stomach, 0.05 m mole/kg

| Molecule | Hrs. After Admin. (of lowest systolic blood pressure value) (second table (Examples 25-43)) [h] | Systolic Blood Pressure, Lowest Value (second table (Examples 25-43)) | Systolic Blood Pressure, Value Before Administration [1] | Δ Blood Pressure (systolic) (second table (Examples 25-43)) | Systolic Blood Pressure, Value Before Administration [2] [mm Hg] | Hours after administration (of lowest systolic blood pressure value) [3] [h] | Systolic Blood Pressure, Lowest value after administration [3] [mm Hg] | Δ Blood Pressure (systolic) [3] [mm Hg] |
| --- | --- | --- | --- | --- | --- | --- | --- | --- |
| CCOC(=O)N[C@@H](CCC(=O)O)C(=O)N1CCC[C@H]1C(=O)O [Example 33, N--ethoxycarbonyl-L-glutamyl-L-proline] | 8 | 202 | 220 | -18 |  |  |  |  |
| CCOC(=O)N[C@@H](CCCNC(=N)N)C(=O)N1CCC[C@H]1C(=O)N1CCC[C@H]1C(=O)O [Example 34, N--ethoxycarbonyl-L-arginyl-L-prolyl-L-proline] | 4 | 192 | 203 | -11 |  |  |  |  |
| CCOC(=O)N[C@@H](CO)C(=O)N1CCC[C@H]1C(=O)N1CCC[C@H]1C(=O)O [Example 35, N--Ethoxycarbonyl-L-seryl-L-prolyl-L-proline] | 8 | 195 | 220 | -25 |  |  |  |  |
| CCOC(=O)N[C@@H](CCSC)C(=O)N1CCC[C@H]1C(=O)N1CCC[C@H]1C(=O)[O-].[Na+] [Example 36, N--Ethoxycarbonyl-L-methionyl-L-prolyl-L proline sodium salt] | 8 | 206 | 223 | -17 |  |  |  |  |
| CC[C@H](C)[C@H](NS(=O)(=O)CC)C(=O)N1CCC[C@H]1C(=O)N1CCC[C@H]1C(=O)O.[Na] [Example 37, N--ethanesulphonyl-L-isoleucyl-L-prolyl-proline sodium salt] | 8 | 194 | 218 | -22 |  |  |  |  |
| CCS(=O)(=O)N[C@@H](Cc1ccccc1)C(=O)N1CCC[C@H]1C(=O)N1CCC[C@H]1C(=O)O [Example 38, N--ethanesulfonyl-L-phenylalanyl-L-prolyl-L-proline] | 8 | 201 | 235 | -34 |  |  |  |  |
| CCS(=O)(=O)NCC(=O)N1CCC[C@H]1C(=O)N1CCC[C@H]1C(=O)O [Example 39, N--ethanesulfonyl-glycyl-L-prolyl-L-proline] | 8 | 215 | 232 | -18 |  |  |  |  |
| CCS(=O)(=O)N[C@@H](CCC(=O)O)C(=O)N1CCC[C@H]1C(=O)N1CCC[C@H]1C(=O)O [Example 40, N--ethane sulfonyl-L-glutamyl-L-prolyl-L proline] | 8 | 202 | 220 | -18 |  |  |  |  |
| CCS(=O)(=O)N[C@@H](CCCNC(=N)N)C(=O)N1CCC[C@H]1C(=O)N1CCC[C@H]1C(=O)O [Example 41, N--ethane sulfonyl-L-arginyl-L-prolyl-L-proline] | 7 | 185 | 204 | -19 |  |  |  |  |
| CCS(=O)(=O)N[C@@H](CO)C(=O)N1CCC[C@H]1C(=O)N1CCC[C@H]1C(=O)[O-].[Na+] [Example 42, N--ethane sulfonyl-L-seryl-L-prolyl-L-proline sodium salt] | 24 | 200 | 220 | -20 |  |  |  |  |
| CCS(=O)(=O)N[C@@H](CCSC)C(=O)N1CCC[C@H]1C(=O)N1CCC[C@H]1C(=O)O [Example 43, N--ethane sulfonyl-L-methionyl-L-prolyl-L-proline] | 8 | 198 | 229 | -31 |  |  |  |  |
| N-(3-phenylpropionyl)-L-alanyl-L-prolyl-L-proline L-arginine salt [Example 2] |  |  |  |  | 190 | 24 | 154 | -36 |
| N-(benzylthio) thiocarbonyl-L-alanyl-L-prolyl-L-proline L-arginine salt [Example 9] |  |  |  |  | 216 | 24 | 191 | -25 |
| N-benzylsulfonyl-L-alanyl-L-prolyl-L-proline L-arginine salt [Example 11] |  |  |  |  | 202 | 8 | 174 | -28 |
| N-phenylcarbamoyl-L-alanyl-L-prolyl-L-proline L-arginine salt [Example 17] |  |  |  |  | 218 | 24 | 203 | -15 |
| N-phenylthiocarbamoyl-L-alanyl-L-prolyl-L-proline L-arginine salt [Example 18] |  |  |  |  | 224 | 24 | 211 | -13 |
